Results from ChEMBL document CHEMBL1134540, “ElogD(oct): a tool for lipophilicity determination in drug discovery. 2. Basic and neutral compounds” (J Med Chem, 2001).

Assay: Partition coefficient (logD7.4)
Details: octanol/water, pH 7.4

| Compound | logD |
| --- | --- |
| CC(C)(C)NCC(O)c1cc(O)cc(O)c1 (stereo unspecified) | -1.35 |
| CNS(=O)(=O)Cc1ccc2[nH]cc(CCN(C)C)c2c1 | -1 |
| Oc1cc(Cl)cc(Cl)c1 | 3.68 |
| CSc1ncnc2c1ncn2[C@@H]1O[C@H](CO)[C@@H](O)[C@H]1O | 0.09 |
| Brc1cnc2ccccc2c1 | 3.03 |
| Nc1nc(N)c2nc(-c3ccccc3)c(N)nc2n1 | 1.21 |
| Oc1ncnc2[nH]ncc12 [ALLOPURINOL] | -0.44 |
| C=CCc1ccccc1OCC(O)CNC(C)C (stereo unspecified) [ALPRENOLOL] | 0.97 |
| CCOC(=O)C1=C(COCCN)NC(C)=C(C(=O)OC)C1c1ccccc1Cl (stereo unspecified) [AMLODIPINE] | 1.66 |
| c1ccc(-c2ccc(C(c3ccccc3)n3ccnc3)cc2)cc1 (stereo unspecified) [BIFONAZOLE] | 4.77 |
| O=C1CN=C(c2ccccn2)c2cc(Br)ccc2N1 [BROMAZEPAM] | 1.65 |
| NC(=O)N1c2ccccc2C=Cc2ccccc21 [CARBAMAZEPINE] | 2.19 |
| CN(C)CCC(c1ccc(Cl)cc1)c1ccccn1 (stereo unspecified) [CHLORPHENIRAMINE] | 1.41 |
| NS(=O)(=O)c1cc(C2(O)NC(=O)c3ccccc32)ccc1Cl (stereo unspecified) [CHLORTHALIDONE] | 1.11 |
| Clc1cccc(Cl)c1N=C1NCCN1 [CLONIDINE] | 0.62 |
| COC(=O)[C@H]1[C@@H](OC(=O)c2ccccc2)C[C@@H]2CC[C@H]1N2C [COCAINE] | 1.05 |
| COc1ccc2c3c1O[C@H]1[C@@H](O)C=C[C@H]4[C@@H](C2)N(C)CC[C@@]341 [CODEINE] | 0.23 |
| CC/C(=C(/CC)c1ccc(O)cc1)c1ccc(O)cc1 [DIETHYLSTILBESTROL] | 5.07 |

| Compound | logD |
| --- | --- |
| CC(C)N(CCC(C(N)=O)(c1ccccc1)c1ccccn1)C(C)C (stereo unspecified) [DISOPYRAMIDE] | -0.66 |
| O=C(NCC1CCCCN1)c1cc(OCC(F)(F)F)ccc1OCC(F)(F)F (stereo unspecified) [FLECAINIDE] | 0.97 |
| COC1=CC(=O)C[C@@H](C)[C@]12Oc1c(Cl)c(OC)cc(OC)c1C2=O [GRISEOFULVIN] | 2.18 |
| CN1C(=O)C(O)N=C(c2ccccc2Cl)c2cc(Cl)ccc21 (stereo unspecified) [LORMETAZEPAM] | 2.72 |
| CN1CCC[C@H]1c1cccnc1 [NICOTINE] | 0.4 |
| O=[N+]([O-])c1ccc(/C=N/O)o1 [NIFUROXIME] | 1.28 |
| NC(=O)N/N=C/c1ccc([N+](=O)[O-])o1 [NITROFURAZONE] | 0.23 |
| CNC(=C[N+](=O)[O-])NCCSCc1csc(CN(C)C)n1 [NIZATIDINE] | -0.52 |
| COc1ccc2[nH]c([S+]([O-])Cc3ncc(C)c(OC)c3C)nc2c1 (stereo unspecified) [OMEPRAZOLE] | 2.3 |
| CC(=O)CCCCn1c(=O)c2c(ncn2C)n(C)c1=O [PENTOXIFYLLINE] | 0.29 |
| CN1CCN(CC(=O)N2c3ccccc3C(=O)Nc3cccnc32)CC1 [PIRENZEPINE] | -0.61 |
| c1ccc2ncccc2c1 [QUINOLINE] | 2.03 |
| CNC(=C[N+](=O)[O-])NCCSCc1ccc(CN(C)C)o1 [RANITIDINE] | -0.29 |
| C[C@]12CC[C@H]3[C@@H](CCC4=CC(=O)CC[C@@]43C)[C@@H]1CC[C@@H]2O [TESTOSTERONE] | 3.29 |
| CCCCNc1ccc(C(=O)OCCN(C)C)cc1 [TETRACAINE] | 2.29 |
| CS(=O)(=O)c1ccc([C@@H](O)[C@@H](CO)NC(=O)C(Cl)Cl)cc1 [THIAMPHENICOL] | -0.27 |
| CSc1ccc2c(c1)N(CCC1CCCCN1C)c1ccccc1S2 (stereo unspecified) [THIORIDAZINE] | 3.34 |
| CCN(CC)CCNC(=O)c1cc(S(C)(=O)=O)ccc1OC [TIAPRIDE] | -0.09 |
